The source of these data is patent publication US11498928B2, “Macrocyclic spiroethers as Mcl-1 inhibitors” (ASCENTAGE PHARMA (SUZHOU) CO., LTD., priority 2019, dated 2022).

For data set [1] the following is noted: amide bond, T3P, DCM, 2.0 h.
Data set [2] concerns the target T1, Mcl-1 protein (residues 171-323) (Homo sapiens, UniProt Q07820).
T1 construct: Tag-free Mcl-1 protein (residues 171-323) was used in the FP assay
The data set can be described thus: Inhibition of Mcl-1 by fluorescence polarization (FP) competitive binding assay with FAM-Bid tracer. The following applies: 2 nM FAM-Bid, 20 nM Mcl-1, 30 min. In a few lines: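 Tag-free Mcl-1 (20 nM) with 2 nM FAM-Bid peptide in PBS, 0.01% BGG, 0.01% Triton X-100, 5% DMSO, 30 min at room temperature. FP read at Ex 485/Em 528 nm. IC50 from 10-point curves normalised to DMSO and no-protein controls.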

Another data set concerns OPM-2 cells. The data set can be described thus: Cell viability assay (OPM-2 cells), CCK-8. In kind it is cell-based. Particulars: Homo sapiens, OPM-2, 24 h, 5% FBS. In a few lines: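 OPM-2 myeloma cells (20000/well) exposed to serially diluted compound for 24 h at 37 °C, 5% CO2, then incubated 4 h with CCK-8 and read at 450 nm. Readings normalized to vehicle; IC50 from nonlinear regression.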

A further data set relates to NCI-H929 cells. The data set can be described thus: Cell viability assay (NCI-H929 cells), CCK-8. In kind it is cell-based. Particulars: Homo sapiens, NCI-H929, 24 h, 5% FBS. An outline of the steps:
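NCI-H929 cells from ATCC were seeded at 20000 cells/well in 95 μL of culture medium in 96-well plates and grown for 4 hrs. Compounds, serially diluted in DMSO and further diluted in medium, were added as 5 μL, and cells were incubated for 24 hrs at 37° C. with 5% CO2. Viability was measured with CCK-8.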

Data set [3] relates to MV-4-11, NCI-H929 and OPM-2 xenografts. The data set can be described thus: In vivo xenograft studies (subcutaneous tumor models). Particulars: tumor-bearing mice, as compared to AMG-176. On the procedure: Female SCID mice at 4-6 weeks old were purchased from Shanghai Laboratory Animal Center (SLAC) and 1×10^7 MV-4-11 cells per mouse in 0.2 ml of PBS with 30% Matrigel were inoculated subcutaneously to the right flank of mice. Volumes of the tumor were estimated as V=LW^2/2, where L and W stand for tumor length and width. Mice with tumor at 50-150 mm^3 were randomized into treatment groups (5 mice per group) and started treatment. Compounds were administered at selected doses by p.o. or i.v. administration. The individual relative tumor volume (RTV) is calculated as following: RTV=Vt/V0, where Vt is the volume on each day of measurement and V0 is the volume on the initial day of treatment. Therapeutic effect of compound is expressed with relative tumor proliferation rate (T/C). The calculation formula is: T/C=mean RTV of the treated group/mean RTV of the control group. Treatments producing >20% lethality and/or 20% net body weight loss were considered toxic. Similar procedures were used in the for the NCI-H929 and OPM-2 xenograft experiments. See FIGS. 1, 3, 5, 7, 9, 11, and 13. Body weight changes in tumor-bearing mice were also measured. See FIGS. 2, 4, 6, 8, 10, 12, and 14.

Data set [4] in a line: Pharmacokinetic studies in mice (IV and PO). In kind it is in vivo. The following applies: for F: PO 10 mg/kg vs IV 2 mg/kg; for AUC(0-inf) / AUC(0-t) / clearance / half-life / Cmax / MRT last / Vd / Tmax / Vd/F: mouse, plasma; for MRT last: read-out: MRT0-last; for Vd: read-out: Vss; for Vd/F: read-out: Vz/F. The procedure:
Administration: Mice in the IV group was dosed at 2 mg/kg (20% PEG 400+10% Cremophor EL+70% PBS 7.4) via tail vein injection (N=9). Mice in the PO group was dosed at 10 mg/kg (20% PEG 400+10% Cremophor EL+70% PBS 7.4) via oral gavage (N=9). All the mice were fasted overnight before dosing and had free access to food 4 hr post dosing.
Sampling: The animal was restrained manually at the designated time points (0.083, 0.25, 0.5, 1, 2, 4, 6, 8 and 24 hr), approximately 110 μL of blood sample was collected via retro-orbital puncture or cardiac puncture for terminal bleeding under the anesthesia with Isoflurane inhalation into K2EDTA tubes. The blood samples were maintained in wet ice first and centrifuged to obtain plasma (2000 g, 4° C., 5 min) within 15 minutes post sampling. All the plasma samples were stored at approximately −70° C. until analysis.

Where [5] appears, read: IV 2 mg/kg, read-out: C0/Cmax (C0).
[6] abbreviates: PO 10 mg/kg, read-out: C0/Cmax (Cmax).

Read-outs that look alike come from different tables or passages of the source.

T1 sequence (Q07820 171-323): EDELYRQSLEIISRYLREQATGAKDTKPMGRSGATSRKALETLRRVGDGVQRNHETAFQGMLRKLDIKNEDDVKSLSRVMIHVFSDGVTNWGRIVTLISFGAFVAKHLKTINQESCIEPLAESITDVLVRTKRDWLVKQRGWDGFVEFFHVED

In data set [1] (from CC(=O)OC(C1=C[C@H]([C@H](C)[C@@H](C)S(N)(=O)=O)C1)[C@@H]1CC[C@H]1CN1C[C@@]2(CCCc3c2ccc(Cl)c3F)COc2ccc(C(=O)O)nc21, DIPEA, DMAP, 24.6 mM), `CC(=O)OC1C2=C[C@@H](C2)[C@H](C)[C@@H](C)S(=O)(=O)NC(=O)c2ccc3c(n2)N(C[C@@H]2CC[C@@H]12)C[C@@]1(CCCc2c1ccc(Cl)c2F)CO3` (stereo partly drawn) had a ring closure, yield of all isomers of 100%.

For `CC(=O)O[C@H]1C2=C[C@@H](C2)[C@H](C)[C@@H](C)S(=O)(=O)NC(=O)c2ccc3c(c2)N(C[C@@H]2CC[C@H]21)C[C@@]1(CCCc2c1ccc(Cl)c2F)CO3`, in data set [1] (from CC(=O)O[C@@H](C1=C[C@H]([C@H](C)[C@@H](C)S(N)(=O)=O)C1)[C@@H]1CC[C@H]1CN1C[C@@]2(CCCc3c2ccc(Cl)c3F)COc2ccc(C(=O)O)cc21, TEA, 14.5 mM), the ring closure, yield of all isomers was found to be 100%.

In data set [1] (from CO[C@@](C=O)(C1=C[C@H]([C@H](C)[C@@H](C)S(N)(=O)=O)C1)[C@@H]1CC[C@H]1CN1C[C@@]2(CCCc3c2ccc(Cl)c3F)COc2ccc(C(=O)O)cc21, DIPEA, DMAP, 6.4 mM, 0.0 °C), `CO[C@@]1(C=O)C2=C[C@@H](C2)[C@H](C)[C@@H](C)S(=O)(=O)NC(=O)c2ccc3c(c2)N(C[C@@H]2CC[C@H]21)C[C@@]1(CCCc2c1ccc(Cl)c2F)CO3` registered a ring closure, yield of all isomers of 89%.

In data set [1] (from CO[C@@H](C1=CC([C@H](C)CS(N)(=O)=O)C1)[C@@H]1CC[C@H]1CN1C[C@@]2(CCCc3c2ccc(Cl)c3F)CSc2ccc(C(=O)O)cc21, Et3N, DMAP, 10.6 mM, 25.0 °C), `CO[C@H]1C2=CC(C2)[C@H](C)CS(=O)(=O)NC(=O)c2ccc3c(c2)N(C[C@@H]2CC[C@H]21)C[C@@]1(CCCc2c1ccc(Cl)c2F)CS3` (stereo partly drawn) yielded a ring closure, yield of all isomers of 26.4%.

For `CO[C@H]1C2=C[C@@H](C2)[C@H](C)[C@@H](C)S(=O)(=O)NC(=O)c2ccc3c(c2)N(C[C@@H]2CC[C@H]21)C[C@@]1(CCCc2c1ccc(Cl)c2F)CO3` (single isomer, unassigned) [Cpd. No. 17 (isomer 1)], the IC50 in data set [2] is 8.1 nM. The compound further returned a concentration for half-maximal inhibition (IC50) in the data set with OPM-2 cells of 62 nM. Further, the concentration for half-maximal inhibition (IC50) in the data set with NCI-H929 cells worked out at 16 nM. For the same compound, the “body weight change (toxicity to the animals)” value in data set [3] is listed as “less body weight change”. In data set [3] (p.o. or i.v.), the tumor growth inhibition result is “surprisingly better tumor growth inhibition”. The F in data set [4] is given as 92.9%. In data set [4] (IV 2 mg/kg), this compound had an area under the curve AUC(0-inf) of 15200 ng·h/mL, an exposure AUC(0-t) of 13900 ng·h/mL, a clearance of 2.18 mL/min/kg and a half-life of 7 h. Further, in data set [4] (IV 2 mg/kg), the MRT last was determined as 6.7 h and the Vd was 1.2 L/kg. In addition, the Cmax in data set [4] (setting [5]) was 997 ng/mL. In addition, in data set [4] (PO 10 mg/kg), the AUC(0-inf) was 70700 ng·h/mL, the area under the curve AUC(0-t) worked out at 56000 ng·h/mL, the Tmax was found to be 4 h and the half-life was 10.6 h. In addition, in data set [4] (PO 10 mg/kg), the MRT last was 8.3 h and the Vd/F came out at 2.2 L/kg. The Cmax in data set [4] (setting [6]) is 4350 ng/mL.

Take `CO[C@H]1C2=CC(C2)[C@H](C)[C@@H](C)S(=O)(=O)NC(=O)c2ccc3c(c2)N(C[C@@H]2CC[C@H]21)C[C@@]1(CCCc2cc(Cl)c(F)cc21)CO3` (single isomer, unassigned) [Cpd. No. 21 (isomer 1)]: the IC50 in data set [2] amounted to 6.6 nM. Besides, 1120 nM corresponded to half-maximal inhibition in the data set with OPM-2 cells (IC50). The concentration for half-maximal inhibition (IC50) in the data set on NCI-H929 cells worked out at 1000 nM. Besides, the F in data set [4] is 94.1%. Also, in data set [4] (IV 2 mg/kg), the total exposure AUC(0-inf) was determined as 8780 ng·h/mL, the AUC(0-t) stood at 8740 ng·h/mL, the clearance was 3.8 mL/min/kg and the half-life is 3.7 h. Besides, in data set [4] (IV 2 mg/kg), the MRT last is 2.7 h and the Vd is 0.6 L/kg. Besides, the Cmax in data set [4] (setting [5]) turned out to be 5160 ng/mL. In data set [4] (PO 10 mg/kg), the total exposure AUC(0-inf) was 41300 ng·h/mL, the exposure AUC(0-t) is 41200 ng·h/mL, the time of peak concentration (Tmax) was 2 h and the half-life is 2.8 h. In addition, in data set [4] (PO 10 mg/kg), the MRT last is 4.9 h and the Vd/F is 9.9 L/kg. In data set [4] (setting [6]), the Cmax worked out at 5260 ng/mL.

What is called IC50 is the concentration needed to halve the response being measured. A word on the AUC(0-inf): it is the area under the concentration-time curve extrapolated to infinity. A low value points to less exposure. For orientation: AUC(0-t) means the area under the concentration-time curve up to a stated or last time point. Read a high AUC(0-t) as high exposure. Usually half-life stands for the time in which the quantity being followed falls by half. A higher half-life goes with slow loss. For orientation: Tmax means the time from dosing to the highest level.
